Reference: US20200216439A1, “HETERO-1,5,6,7-TETRAHYDRO-4H-INDOL-4-ONES” (BAYER PHARMA AKTIENGESELLSCHAFT, priority 2015, published 2020)

biological target: T1, catalytic domain of human Bub1 (amino acids 704-1085) (Homo sapiens, UniProt O43683); test: Bub1 kinase assay (TR-FRET); format: biochemical; settings: TR-FRET; ATP 10 μM, peptide substrate 1 μM; 60 min at 22° C.; average or median if tested more than once; read-out: Inhibition of Bub1 kinase IC50
T1 construct: catalytic domain of human Bub1 (amino acids 704-1085); His6 (N); made in house; host or cells: Hi5 insect cells
T1 sequence (O43683 704-1085): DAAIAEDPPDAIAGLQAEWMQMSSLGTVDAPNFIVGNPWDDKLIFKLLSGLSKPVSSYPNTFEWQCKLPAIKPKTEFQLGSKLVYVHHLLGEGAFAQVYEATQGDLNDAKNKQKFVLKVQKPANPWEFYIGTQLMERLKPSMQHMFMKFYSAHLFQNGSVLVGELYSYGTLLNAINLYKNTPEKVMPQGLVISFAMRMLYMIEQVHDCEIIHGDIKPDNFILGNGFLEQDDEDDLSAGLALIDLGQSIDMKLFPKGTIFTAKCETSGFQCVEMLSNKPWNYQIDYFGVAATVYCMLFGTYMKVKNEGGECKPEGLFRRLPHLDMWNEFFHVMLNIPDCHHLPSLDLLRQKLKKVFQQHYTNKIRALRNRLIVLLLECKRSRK
Procedure, shortened: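 Eleven concentrations (0.1 nM–20 μM, duplicate) fitted by 4-parameter logistic for IC50. Read-out: EDTA-stopped TR-FRET (665/620 nm) detecting anti-phosphoserine binding to biotin-peptide (1 μM). Reaction used 10 μM ATP, 60 min at 22 °C, after 15 min compound preincubation with His-tagged human Bub1 704-1085.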

Compared with `O=C1COCc2[nH]c(-c3ccncc3Br)c(Nc3ccccc3)c21` [Example 41, 2-(3-Bromopyridin-4-yl)-3-(phenylamino)-1,7-dihydropyrano[3,4-b]pyrrol-4(5H)-one], `Cc1nccc(-c2[nH]c3c(c2Nc2ccccc2)C(=O)COC3)n1` [Example 15, 2-(2-Methylpyrimidin-4-yl)-3-(phenylamino)-1,7-dihydropyrano[3,4-b]pyrrol-4(5H)-one] is 5.2-fold higher in IC50: 233 nM for the first, 1200 nM for the second. The first is the more potent here.

Compared with `CC(=O)Nc1cc(-c2[nH]c3c(c2Nc2ccccc2)C(=O)CN(C(=O)CC(F)(F)F)C3)ccn1` [Example 169, N-{4-[3-Anilino-4-oxo-6-(3,3,3-trifluoropropanoyl)-4,5,6,7-tetrahydro-1H-pyrrolo[2,3-c]pyridin-2-yl]pyridin-2-yl}acetamide], `CC(=O)Nc1cc(-c2[nH]c3c(c2Nc2ccccc2)C(=O)CN(C(=O)CCC(C)(C)C)C3)ccn1` [Example 179, N-{4-[3-Anilino-6-(4,4-dimethylpentanoyl)-4-oxo-4,5,6,7-tetrahydro-1H-pyrrolo[2,3-c]pyridin-2-yl]pyridin-2-yl}acetamide] is 13-fold higher in IC50: 5 nM for the first, 63 nM for the second.

Compared with `Cc1nccc(-c2[nH]c3c(c2Nc2ccccc2)C(=O)CNC3)n1` [Example 16, 2-(2-Methylpyrimidin-4-yl)-3-(phenylamino)-1,5,6,7-tetrahydro-4H-pyrrolo[2,3-c]pyridin-4-one], `O=C1CNCc2[nH]c(-c3ccncc3)c(Nc3ccccc3)c21` [Example 14] is 20-fold lower in IC50: 949 nM for the first, 47 nM for the second. The second is the more potent here.

First: O=C(Nc1cc(-c2[nH]c3c(c2Nc2ccccc2)C(=O)CN(S(=O)(=O)c2cnc[nH]2)C3)ccn1)c1ccc(F)cc1 [Example 160, N-{4-[3-Anilino-6-(1H-imidazol-5-ylsulfonyl)-4-oxo-4,5,6,7-tetrahydro-1H-pyrrolo[2,3-c]pyridin-2-yl]pyridin-2-yl}-4-fluorobenzamide]
Second: O=C(Nc1cc(-c2[nH]c3c(c2Nc2ccccc2)C(=O)CNC3)ccn1)c1ccc(F)cc1 [Example 134, N-[4-(3-anilino-4-oxo-4,5,6,7-tetrahydro-1H-pyrrolo[2,3-c]pyridin-2-yl)pyridin-2-yl]-4-fluorobenzamide]
The IC50 of the first is 9-fold lower: 4 nM for the first, 36 nM for the second.

Going from `CC(C)(C)OC(=O)N1CC(=O)c2c([nH]c(-c3ccnc(N)c3)c2Nc2ccccc2)C1` [Example 13, tert-Butyl 2-(2-aminopyridin-4-yl)-4-oxo-3-(phenylamino)-1,4,5,7-tetrahydro-6H-pyrrolo[2,3-c]pyridine-6-carboxylate] to `COc1cnccc1-c1[nH]c2c(c1Nc1ccccc1)C(=O)CN(C(=O)OC(C)(C)C)C2` [Example 102, tert-Butyl 2-(3-methoxypyridin-4-yl)-4-oxo-3-(phenylamino)-1,4,5,7-tetrahydro-6H-pyrrolo[2,3-c]pyridine-6-carboxylate], the IC50 falls from 40 nM to 17 nM (2.4-fold). The second is the more potent here.

`CNS(=O)(=O)N1CC(=O)c2c([nH]c(-c3ccnc(NC(C)=O)c3)c2Nc2ccc(F)cc2)C1` [Example 315, N-(4-(3-[(4-Fluorophenyl)amino]-6-(methylsulfamoyl)-4-oxo-4,5,6,7-tetrahydro-1H-pyrrolo[2,3-c]pyridin-2-yl)pyridin-2-yl)acetamide] and `CC(=O)Nc1cc(-c2[nH]c3c(c2Nc2ccc(F)cc2)C(=O)CN(S(C)(=O)=O)C3)ccn1` [Example 311, N-(4-(3-[(4-Fluorophenyl)amino]-6-(methylsulfonyl)-4-oxo-4,5,6,7-tetrahydro-1H-pyrrolo[2,3-c]pyridin-2-yl)pyridin-2-yl)acetamide] are the same in IC50: 4 nM for the first, 4 nM for the second.

`CC(=O)Nc1cc(-c2[nH]c3c(c2Nc2ccccc2)C(=O)CN(S(=O)(=O)CCO)C3)ccn1` [Example 188, N-(4-{3-Anilino-6-[(2-hydroxyethyl)sulfonyl]-4-oxo-4,5,6,7-tetrahydro-1H-pyrrolo[2,3-c]pyridin-2-yl}pyridin-2-yl)acetamide] and `CS(=O)(=O)N1CC(=O)c2c([nH]c(-c3ccnc(NC(=O)c4cncs4)c3)c2Nc2ccccc2)C1` [Example 151] are the same in IC50: 4 nM for the first, 4 nM for the second.

Compared with `CSCCNC(=O)N1CC(=O)c2c([nH]c(-c3ccncc3)c2Nc2ccccc2)C1` [Example 87, N-[2-(Methylsulfanyl)ethyl]4-oxo-3-(phenylamino)-2-(pyridin-4-yl)-1,4,5,7-tetrahydro-6H-pyrrolo[2,3-c]pyridine-6-carboxamide], `CC(=O)N1CC(=O)c2c([nH]c(-c3ccncc3)c2Nc2ccccc2)C1` [Example 7, 6-Acetyl-3-(phenylamino)-2-(pyridin-4-yl)-1,5,6,7-tetrahydro-4H-pyrrolo[2,3-c]pyridin-4-one] is 2.8-fold lower in IC50: 11 nM for the first, 4 nM for the second. The second is the more potent here.

First: CN(C)CCOc1cnccc1-c1[nH]c2c(c1Nc1ccccc1)C(=O)CN(C(=O)OC(C)(C)C)C2 [Example 276, tert-Butyl 2-3-[2-(dimethylamino)ethoxy]pyridin-4-yl-4-oxo-3-(phenylamino)-1,4,5,7-tetrahydro-6H-pyrrolo[2,3-c]pyridine-6-carboxylate]
Second: COc1cnccc1-c1[nH]c2c(c1Nc1ccccc1)C(=O)CN(C(C)=O)C2 [Example 105, 6-Acetyl-2-(3-methoxypyridin-4-yl)-3-(phenylamino)-1,5,6,7-tetrahydro-4H-pyrrolo[2,3-c]pyridin-4-one]
The IC50 of the first is 1.7-fold lower: 7 nM for the first, 12 nM for the second. The first is the more potent here.

`COc1ccc(C(=O)Nc2cc(-c3[nH]c4c(c3Nc3ccccc3)C(=O)CN(C(=O)N3CCCC3)C4)ccn2)cc1F` [Example 293, 3-Fluoro-4-methoxy-N-4-[4-oxo-3-(phenylamino)-6-(pyrrolidin-1-ylcarbonyl)-4,5,6,7-tetrahydro-1H-pyrrolo[2,3-c]pyridin-2-yl]pyridin-2-ylbenzamide] and `COc1cc(C(=O)Nc2cc(-c3[nH]c4c(c3Nc3ccccc3)C(=O)CN(C(=O)N3CCCC3)C4)ccn2)ccc1F` [Example 262, 4-Fluoro-3-methoxy-N-4-[4-oxo-3-(phenylamino)-6-(pyrrolidin-1-ylcarbonyl)-4,5,6,7-tetrahydro-1H-pyrrolo[2,3-c]pyridin-2-yl]pyridin-2-ylbenzamide] are within 1.5-fold of each other in IC50: 10 nM for the first, 8 nM for the second.

Going from `COc1ccc(C(=O)Nc2cc(-c3[nH]c4c(c3Nc3ccccc3)C(=O)CNC4)ccn2)cc1F` [Example 284, 3-Fluoro-4-methoxy-N-4-[4-oxo-3-(phenylamino)-4,5,6,7-tetrahydro-1H-pyrrolo[2,3-c]pyridin-2-yl]pyridin-2-ylbenzamide] to `COC(=O)N1CC(=O)c2c([nH]c(-c3ccnc(NC(=O)[C@@H]4C[C@@H]4F)c3)c2Nc2ccccc2)C1` [Example 205, Methyl 2-[2-([(1S,2S)-2-fluorocyclopropyl]carbonylamino)pyridin-4-yl]-4-oxo-3-(phenylamino)-1,4,5,7-tetrahydro-6H-pyrrolo[2,3-c]pyridine-6-carboxylate], the IC50 falls from 52 nM to 3 nM (17-fold). The second is the more potent here.

Going from `CC(=O)Nc1cc(-c2[nH]c3c(c2Nc2ccc(C)cc2)C(=O)CN(C(=O)N(C)C)C3)ccn1` [Example 317, 2-[2-(Acetylamino)pyridin-4-yl]-N,N-dimethyl-3-[(4-methylphenyl)amino]-4-oxo-1,4,5,7-tetrahydro-6H-pyrrolo[2,3-c]pyridine-6-carboxamide] to `CC(=O)Nc1cc(-c2[nH]c3c(c2Nc2ccc(C)cc2)C(=O)CN(C(C)=O)C3)ccn1` [Example 319, N-(4-(6-Acetyl-3-[(4-methylphenyl)amino]-4-oxo-4,5,6,7-tetrahydro-1H-pyrrolo[2,3-c]pyridin-2-yl)pyridin-2-yl)acetamide], the IC50 rises from 50 nM to 192 nM (3.8-fold). The first is the more potent here.

First: CC(=O)Nc1cc(-c2[nH]c3c(c2Nc2ccccc2)C(=O)CN(C(=O)N2CCCCC2)C3)ccn1 [Example 166, N-{4-[3-Anilino-4-oxo-6-(piperidin-1-ylcarbonyl)-4,5,6,7-tetrahydro-1H-pyrrolo[2,3-c]pyridin-2-yl]pyridin-2-yl}acetamide]
Second: CCN(CC)C(=O)N1CC(=O)c2c([nH]c(-c3ccnc(NC(C)=O)c3)c2Nc2ccccc2)C1 [Example 167, 2-(2-Acetamidopyridin-4-yl)-3-anilino-N,N-diethyl-4-oxo-1,4,5,7-tetrahydro-6H-pyrrolo[2,3-c]pyridine-6-carboxamide]
The IC50 of the first is 2-fold lower: 3 nM for the first, 6 nM for the second.

Going from `COCCOc1cnccc1-c1[nH]c2c(c1Nc1ccccc1)C(=O)CN(S(C)(=O)=O)C2` [Example 234] to `CN(C)S(=O)(=O)N1CC(=O)c2c([nH]c(-c3ccncc3OCC3CC3)c2Nc2ccccc2)C1` [Example 282, 2-[3-(Cyclopropylmethoxy)pyridin-4-yl]-N,N-dimethyl-4-oxo-3-(phenylamino)-1 4,5,7-tetrahydro-6H-pyrrolo[2,3-c]pyridine-6-sulfonamide], the IC50 rises from 5 nM to 12 nM (2.4-fold). The first is the more potent here.

Going from `COC(=O)N1CC(=O)c2c([nH]c(-c3ccnc(NC(=O)C4(F)CC4)c3)c2Nc2ccccc2)C1` [Example 147, Methyl 3-anilino-2-{2-([(1-fluorocyclopropyl)carbonyl]amino}pyridin-4-yl)-4-oxo-1,4,5,7-tetrahydro-6H-pyrrolo[2,3-c]pyridine-6-carboxylate] to `CS(=O)(=O)N1CC(=O)c2c([nH]c(-c3ccnc(NC(=O)C4CC4(F)F)c3)c2Nc2ccccc2)C1` (racemic) [Example 149, (1RS)—N-{4-[3-Anilino-6-(methylsulfonyl)-4-oxo-4,5,6,7-tetrahydro-1H-pyrrolo[2,3-c]pyridin-2-yl]pyridin-2-yl}-2,2-difluorocyclopropanecarboxamide], the IC50 falls from 8 nM to 4 nM (2-fold).

Going from `CC(=O)N1CC(=O)c2c([nH]c(-c3ccncc3OCC3CC3)c2Nc2ccccc2)C1` [Example 231, 6-Acetyl-2-[3-(cyclopropylmethoxy)pyridin-4-yl]-3-(phenylamino)-1,5,6,7-tetrahydro-4H-pyrrolo[2,3-c]pyridin-4-one] to `CC(C)(O)CC(=O)N1CC(=O)c2c([nH]c(-c3ccncc3)c2Nc2ccccc2)C1` [Example 57, 6-(3-Hydroxy-3-methylbutanoyl)-3-(phenylamino)-2-(pyridin-4-yl)-1,5,6,7-tetrahydro-4H-pyrrolo[2,3-c]pyridin-4-one], the IC50 falls from 40 nM to 8 nM (5-fold). The second is the more potent here.
